The results in this text go back to patent publication EP4603107A1, “BIOORTHOGONAL, ANILINIUM BASED CLEAVABLE TETRAZINES” (University of Copenhagen, priority 2024, dated 2025).

Series [1] in a line: Click kinetics, stopped-flow measurement of tetrazine ligation with equatorial TCO-PEG4. As to conditions: PBS (10mM), 37 °C, TCO 1 mM, tetrazine 100 µM, absorbance at 535 nm. As to the method: Nine tetrazines of formula (I) (Table 1) were clicked with equatorial TCO-PEG4 (rel-(1R-4E-pR)-cyclooct-4-en-1-yl (2-(2-(2-(2-hydroxyethoxy)ethoxy)ethoxy)ethyl)carbamate).
Stopped-flow measurements were performed using an SX20-LED stopped-flow spectrophotometer (Applied Photophysics) equipped with a 535 nm LED (optical pathlength 10 mm, full width half-maximum 34 nm) to monitor the characteristic tetrazine visible light absorbance (520-540 nm).
A stock solution of eqTCO-PEG4 in DMSO was prepared at an approximate concentration above 100 mM. The exact concentration was determined by absorbance titration with 3,6-di-2-pyridyl-1,2,4,5-tetrazine. Stock solutions of tetrazines in DMSO were prepared at a concentration of 10 mM. These initial stock solutions were diluted into PBS (10mM) before stopped-flow analysis to reach a final TCO concentration of 1 mM and a tetrazine concentration of 100 µM. The reagent syringes were loaded with solutions of the Tz and eqTCO-PEG4, and the instrument was primed. Subsequent data were collected in triplicate to sextuplicate for each tetrazine. Reactions were conducted at 37 °C and recorded automatically at the time of acquisition. Data sets were analyzed by fitting an exponential decay using Prism 6 (Graphpad) to calculate the observed pseudo-first-order rate constants that were converted into second-order rate constants by dividing with the concentration of the excess TCO compound. Table 1: second rate order constant (M-1s-1) for the ligation between nine tetrazines and equatorial TCO-PEG4 (rel-(1R-4E-pR)-cyclooct-4-en-1-yl (2-(2-(2-(2-hydroxyethoxy)ethoxy)ethoxy)ethyl)carbamate).

A short description of series [2]: Chemical stability in PBS (HPLC). The series is classed as physicochemical. As to conditions: HPLC at RT, 9:1 PBS/MeCN solution, 1.0-1.5 mM Tz, 254 nm; read-out: PBS stability t1/2. As for the experimental part: Ten tetrazines of formula (I) (Table 2) were tested in relation to chemical stability in PBS. The results are shown in Table 2 for the chemical half-life was measured by HPLC at RT, in 9:1 PBS/MeCN solution, using 1.0-1.5 mM Tz (a); based on average peak intensities of the corresponding Tz and the corresponding oxadiazoles (the degradation product), at 254 nm.

Regarding `COc1cccc(-c2nnc(C[N+](C)(C)c3ccccc3)nn2)c1.[Br-]` [Compound 19, N-((6-(3-methoxyphenyl)-1,2,4,5-tetrazin-3-yl)methyl)-N,N-dimethylbenzenaminium bromide], the “second order rate constant” value in series [1] is 790 M⁻¹ s⁻¹. In series [2], the half-life is 48.2 ± 0.5 min.
For the molecule `C[N+](C)(Cc1nnc(-c2ccc(F)cc2)nn1)c1ccccc1.[Br-]` [Compound 20, N-((6-(4-fluorophenyl)-1,2,4,5-tetrazin-3-yl)methyl)-N,N-dimethylbenzenaminium bromide], in series [1], the “second order rate constant” value turned out to be 580 M⁻¹ s⁻¹. In series [2], the half-life stood at 47.8 ± 3.5 min.
Take `C[N+](C)(Cc1nnc(-c2ccccc2)nn1)c1ccccc1.[Br-]` [Compound 21, N,N-dimethyl-N-((6-phenyl-1,2,4,5-tetrazin-3-yl)methyl)benzenaminium bromide]: in series [1], the “second order rate constant” value was 650 M⁻¹ s⁻¹. Moreover, the half-life in series [2] is 58 ± 0.5 min.
Taken in the same sequence, the figures for `Cc1ccc(-c2nnc(C[N+](C)(C)c3ccccc3)nn2)cc1.[Br-]` [Compound 22, N,N-dimethyl-N-((6-(p-tolyl)-1,2,4,5-tetrazin-3-yl)methyl)benzenaminium bromide] were 480 M⁻¹ s⁻¹ and 107 ± 1 min.
The like results for `COc1ccc(-c2nnc(C[N+](C)(C)c3ccccc3)nn2)cc1.[Br-]` [Compound 23, N-((6-(4-methoxyphenyl)-1,2,4,5-tetrazin-3-yl)methyl)-N,N-dimethylbenzenaminium bromide] were, in that order, 370 M⁻¹ s⁻¹ and 154 ± 41 min.
For the molecule `C[N+](C)(Cc1nnc(-c2ccc(O)cc2)nn1)c1ccccc1.[Br-]` [Compound 24, N-((6-(4-hydroxyphenyl)-1,2,4,5-tetrazin-3-yl)methyl)-N,N-dimethylbenzenaminium bromide], the half-life in series [2] turned out to be 297 ± 6 min.
Consider `Cc1ccc([N+](C)(C)Cc2nnc(-c3ccccc3)nn2)cc1.[Br-]` [Compound 25, N,N,4-trimethyl-N-((6-phenyl-1,2,4,5-tetrazin-3-yl)methyl)benzenaminium bromide], for which, in series [1], the “second order rate constant” value was 620 M⁻¹ s⁻¹. Besides, the half-life in series [2] stood at 68.8 ± 6 min.
Taken in the same sequence, the figures for `COc1ccc([N+](C)(C)Cc2nnc(-c3ccccc3)nn2)cc1.[Br-]` [Compound 26, 4-methoxy-N,N-dimethyl-N-((6-phenyl-1,2,4,5-tetrazin-3-yl)methyl)benzenaminium bromide] were 670 M⁻¹ s⁻¹ and 112 ± 21.4 min.
Take `C[N+](C)(Cc1nnc(-c2ccccc2)nn1)c1ccc(O)cc1.[Br-]` [Compound 27, 4-hydroxy-N,N-dimethyl-N-((6-phenyl-1,2,4,5-tetrazin-3-yl)methyl)benzenaminium bromide]: in series [1], the “second order rate constant” value amounted to 620 M⁻¹ s⁻¹. In series [2], the half-life came to 311 ± 69 min.
The like results for `COc1ccc(-c2nnc(C[N+](C)(C)c3ccc(OC)cc3)nn2)cc1.[Br-]` [Compound 29, 4-methoxy-N-((6-(4-methoxyphenyl)-1,2,4,5-tetrazin-3-yl)methyl)-N,N-dimethylbenzenaminium bromide] were, in that order, 340 M⁻¹ s⁻¹ and 561.9 ± 0.75 min.
